Where only a bound is given, the exact number is not on record here.

This assay has as its target T1, human FSH receptor (Homo sapiens, UniProt P23945).
T1 construct: expressed in transfected cells; host or cells: CHO cells, stably transfected; cotransfected with CRE-luciferase reporter
T1 sequence (P23945 18-695): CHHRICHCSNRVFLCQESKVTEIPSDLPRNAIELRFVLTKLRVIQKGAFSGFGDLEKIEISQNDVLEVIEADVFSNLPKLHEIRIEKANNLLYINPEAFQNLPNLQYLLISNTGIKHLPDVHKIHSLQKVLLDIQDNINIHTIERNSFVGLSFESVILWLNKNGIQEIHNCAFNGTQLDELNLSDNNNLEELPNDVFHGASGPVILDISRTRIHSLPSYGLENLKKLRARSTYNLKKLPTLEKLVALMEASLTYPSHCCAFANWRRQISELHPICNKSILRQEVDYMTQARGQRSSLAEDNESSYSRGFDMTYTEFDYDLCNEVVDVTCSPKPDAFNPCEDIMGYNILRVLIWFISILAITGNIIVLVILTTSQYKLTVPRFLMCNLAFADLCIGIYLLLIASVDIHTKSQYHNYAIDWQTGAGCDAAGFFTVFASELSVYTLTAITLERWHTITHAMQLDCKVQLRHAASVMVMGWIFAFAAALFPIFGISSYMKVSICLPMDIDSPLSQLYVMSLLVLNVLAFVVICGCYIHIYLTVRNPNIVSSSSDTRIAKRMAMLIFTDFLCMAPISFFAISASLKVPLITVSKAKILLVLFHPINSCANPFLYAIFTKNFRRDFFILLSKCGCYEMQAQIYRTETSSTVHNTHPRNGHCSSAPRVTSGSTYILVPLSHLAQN
Nature of the assay: Antagonistic activity of compounds at the human FSH receptor expressed in CHO cells (CRE-luciferase reporter). The assay is classed as cell-based. The conditions noted are these: CHO cells stably transfected with human FSH receptor and CRE/luciferase reporter; together with 49 μM recFSH; 4 hours incubation; 1% DMSO; read-out: IC50 (concentration of test compound causing half-maximal inhibition of the maximally attainable inhibition of the luciferase stimulation). The essentials: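 Stably transfected CHO cells with a CRE-driven firefly luciferase reporter were co-incubated 4 h at 37 °C with compound (0.316 nM–10.0 μM, duplicate) plus […] recFSH (80% maximal stimulation), 1% DMSO final. Luminescence read after lysis; IC50 and efficacy from inhibition of FSH-induced luciferase signal.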
Take `COc1cc2c(cc1OC)-c1nc(C(=O)N[C@@H](CO)Cc3c[nH]c4ccccc34)c(-c3cccc(F)c3)n1CC2` [Example 66, (R)-3-(3-fluorophenyl)-N-(1-hydroxy-3-(1H-indol-3-yl)propan-2-yl)-8,9-dimethoxy-5,6-dihydroimidazo[2,1-a]isoquinoline-2-carboxamide]: the IC50 fell in the range of 100 to 1000 nM.
The same measure for `COc1cc2c(cc1OC)-c1nc(C(=O)N[C@@H](CO)Cc3c[nH]c4ccccc34)c(-c3ccccc3F)n1CC2` [Example 67, 3-(2-fluorophenyl)-N—((R)-1-hydroxy-3-(1H-indol-3-yl)propan-2-yl)-8,9-dimethoxy-5,6-dihydroimidazo[2,1-a]isoquinoline-2-carboxamide]: 100 to 1000 nM; for `COc1cc2c(cc1OC)-c1nc(C(=O)N[C@@H](CO)Cc3c[nH]c4ccccc34)c(-c3ccccc3OC)n1CC2` [Example 68, N—((R)-1-hydroxy-3-(1H-indol-3-yl)propan-2-yl)-8,9-dimethoxy-3-(2-methoxyphenyl)-5,6-dihydroimidazo[2,1-a]isoquinoline-2-carboxamide]: 100 to 1000 nM.
The same measure for `COc1ccccc1-c1c(C(=O)N[C@@H](CO)Cc2c[nH]c3ccccc23)nc2n1CCc1cc(OC)c(OC)nc1-2` [Example 70, N—((R)-1-hydroxy-3-(1H-indol-3-yl)propan-2-yl)-8,9-dimethoxy-3-(2-methoxyphenyl)-5,6-dihydroimidazo[1,2-h][1,7]naphthyridine-2-carboxamide]: < 100 nM.
